Experimental data as given in PMC9098913, “In vitro reconstitution of Escherichia coli divisome activation” (Nature Communications, 2022).

Columns and labels:
[1] = SEC-MALS oligomeric state of FtsA in solution; assay type: physicochemical
Method: Light scattering was recorded on a miniDAWN light scattering device (Wyatt). Changes in the refractive index were used to define the peak area, which was used to obtain the molecular mass. The analysis of the data was performed with the ASTRA software (Wyatt).

FtsA self-interaction = assay: Cuvette FRET of FtsA in solution and with lipid vesicles (SUVs); assay type: binding, E. coli; conditions: for FRET efficiency: Fig. S3c, in cuvette
Method: For in solution FRET experiments, increasing concentrations of Cy3-FtsA and Cy5-FtsA in a 50:50 ratio were mixed in 100 µl reaction buffer (50 mM Tris-HCl [pH7.4], 150 mM KCl and 5 mM MgCl2) inside a quartz cuvette (Hellma® fluorescence cuvettes, ultra Micro). The spectrums were measured using a Spectrophotometer Spectramax M2e Plate- + Cuvette Reader (Molecular Devices). Cy3-FtsA was excited at a wavelength of 520 nm and the resulting emission spectrum was recorded from 550–700 nm in 1 nm steps. To avoid crosstalk of the excitation light, a cutoff filter was set to 550 nm. Addition of ATP or small unilamellar vesicles (SUVs) was measured individually for each concentration. Buffer controls containing the corresponding reagents and only Cy5-FtsA were measured and used as background corrections for measurements with Cy3- and Cy5-FtsA. Background corrected spectra were used to estimate FRET efficiency by E(%)=Fa/Fd+Fa⋅100 , where Fa is the peak of acceptor (=Cy5) emission at 670 nm and Fd the peak of the emission of the donor (=Cy3) spectrum at 565 nm.

FtsZ filaments = assay: FtsZ turnover / lifetime / off-rate, single-molecule tracking; assay type: biochemical, E. coli
Method: Single-molecule experiments were performed as described previously. In short, individual FtsZ proteins were imaged at single-molecule level by adding small amounts of Cy5-labelled FtsZ (200 pM) to a chamber with 0.2 or 0.4 µM FtsA and 1.25 μM Alexa488-FtsZ.
Single molecules of FtsA or FtsZ were tracked using the TrackMate plugin from ImageJ[43]. To obtain the residence time of FtsZ and FtsA, we performed a residence time analysis as described before[40],[47]. Shortly, single molecules were imaged at different acquisition rates (0.1–2 s) and the lifetime of the molecules was extracted from each data set. To account for photobleaching effect, the obtained lifetimes were plotted against the acquisition rate. […] Furthermore, we extracted the diffusion coefficient of FtsA single molecules at increasing concentrations. For this, we filtered the obtained data, by considering only trajectories which are present on the membrane for more than 0.4 s. […] Subsequently, the diffusion coefficient of FtsA molecules was estimated by fitting an MSD curve to each individual trajectory.

FtsZ = tested on: FtsZ
Method: Additionally, the reaction chamber contained 4 mM ATP and 4 mM GTP, as well as a scavenging system to minimize photobleaching effects: 30 mM d-glucose, 0.050 mg ml^−1 Glucose Oxidase, 0.016 mg ml^−1 Catalase, 1 mM DTT and 1 mM Trolox. Prior addition of all components a corresponding buffer volume was removed from the chamber to obtain a total reaction volume of 100 µl. The dynamic protein pattern was monitored by time-lapse TIRF microscopy at one frame per 2 s and 50 ms exposure time.

## FtsA WT: wild-type E. coli actin-homologue FtsA, membrane anchor of FtsZ
[1]
  oligomeric state in solution: monomeric in solution
FtsA self-interaction; + SUVs, 0.05 µM, mean, n = 3
  FRET efficiency: 1.50%
FtsA self-interaction; + SUVs, 0.05 µM, replicate 1
  FRET efficiency: 1.29%
FtsA self-interaction; + SUVs, 0.05 µM, replicate 2
  FRET efficiency: 1.96%
FtsA self-interaction; + SUVs, 0.05 µM, replicate 3
  FRET efficiency: 1.25%
FtsA self-interaction; + SUVs, 0.10 µM, mean, n = 3
  FRET efficiency: 6.63%
FtsA self-interaction; + SUVs, 0.10 µM, replicate 1
  FRET efficiency: 6.56%
FtsA self-interaction; + SUVs, 0.10 µM, replicate 2
  FRET efficiency: 7.39%
FtsA self-interaction; + SUVs, 0.10 µM, replicate 3
  FRET efficiency: 5.94%
FtsA self-interaction; + SUVs, 0.20 µM, mean, n = 3
  FRET efficiency: 7.59%
FtsA self-interaction; + SUVs, 0.20 µM, replicate 1
  FRET efficiency: 8.16%
FtsA self-interaction; + SUVs, 0.20 µM, replicate 2
  FRET efficiency: 7.75%
FtsA self-interaction; + SUVs, 0.20 µM, replicate 3
  FRET efficiency: 6.87%
FtsA self-interaction; without SUVs, 0.05 µM, mean, n = 3
  FRET efficiency: 0.0114%
FtsA self-interaction; without SUVs, 0.05 µM, replicate 1
  FRET efficiency: 0.0544%
FtsA self-interaction; without SUVs, 0.05 µM, replicate 2
  FRET efficiency: -1.50%
FtsA self-interaction; without SUVs, 0.05 µM, replicate 3
  FRET efficiency: 1.48%
FtsA self-interaction; without SUVs, 0.10 µM, mean, n = 3
  FRET efficiency: 1.67%
FtsA self-interaction; without SUVs, 0.10 µM, replicate 1
  FRET efficiency: 1.71%
FtsA self-interaction; without SUVs, 0.10 µM, replicate 2
  FRET efficiency: 2.21%
FtsA self-interaction; without SUVs, 0.10 µM, replicate 3
  FRET efficiency: 1.09%
FtsA self-interaction; without SUVs, 0.20 µM, mean, n = 3
  FRET efficiency: 2.87%
FtsA self-interaction; without SUVs, 0.20 µM, replicate 1
  FRET efficiency: 2.43%
FtsA self-interaction; without SUVs, 0.20 µM, replicate 2
  FRET efficiency: 2.56%
FtsA self-interaction; without SUVs, 0.20 µM, replicate 3
  FRET efficiency: 3.62%
FtsA self-interaction; cuvette, no lipid
  FRET in solution: could not detect any significant FRET signal
FtsA self-interaction; cuvette, presence of lipid vesicles
  FRET with lipid vesicles: FRET increased significantly

B1: FtsA R286W (protein)
chain: MIKATDRKLVVGLEIGTAKVAALVGEVLPDGMVNIIGVGSCPSRGMDKGGVNDLESVVKCVQRAIDQAELMADCQISSVYLALSGKHISCQNEIGMVPISEEEVTQEDVENVVHTAKSVRVRDEHRVLHVIPQEYAIDYQEGIKNPVGLSGVRMQAKVHLITCHNDMAKNIVKAVERCGLKVDQLIFAGLASSYSVLTEDERELGVCVVDIGGGTMDIAVYTGGALRHTKVIPYAGNVVTSDIAYAFGTPPSDAEAIKVRHGCALGSIVGKDESVEVPSVGGRPPWSLQRQTLAEVIEPRYTELLNLVNEEILQLQEKLRQQGVKHHLAAGIVLTGGAAQIEGLAACAQRVFHTQVRIGAPLNITGLTDYAQEPYYSTAVGLLHYGKESHLNGEAEVEKRVTASVGSWIKRLNSWLRKEF
modifications: Cy3 or Cy5 at the N-terminus in the labelled form (labelled CLEPTGG peptide conjugated to the 5xGly tag by sortagging); unlabelled protein also used; left off: TwinStrep-SUMO, N-terminal, cleaved | 5x
[1]
  oligomeric state in solution: monomeric in solution
FtsZ filaments
  FtsZ turnover compared to the wild-type protein: slightly decreased
FtsZ
  FtsZ fluorescence intensity compared to the wild-type protein: increased
